Data taken from PubChem BioAssay (NCI).
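Cells were grown in 96-well plates and exposed to each compound for 48 hours at five concentrations; endpoints were interpolated linearly between bracketing concentrations, or set to the highest concentration if not reached. At the TGI there is no net growth.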

Experiments:
Assay in all cases: inhibition of tumour cell growth, NCI panel, 48 h
K-562 leukemia = test system: K-562 leukemia
MALME-3M melanoma = test system: MALME-3M melanoma
NCI-H226 lung = test system: NCI-H226 lung
OVCAR-5 ovarian = test system: OVCAR-5 ovarian
SR leukemia = test system: SR leukemia
SW-620 colon = test system: SW-620 colon
T-47D breast = test system: T-47D breast
TK-10 renal = test system: TK-10 renal
HS 578T breast = test system: HS 578T breast
SNB-75 CNS = test system: SNB-75 CNS

SMILES | TGI (K-562 leukemia) | TGI (MALME-3M melanoma) | TGI (NCI-H226 lung) | TGI (OVCAR-5 ovarian) | TGI (SR leukemia) | TGI (SW-620 colon) | TGI (T-47D breast) | TGI (TK-10 renal) | TGI (HS 578T breast) | TGI (SNB-75 CNS)
CC(=O)c1cc(S(=O)(=O)c2ccc(O)c(C(C)=O)c2)ccc1O | > 100 µM | > 100 µM | > 100 µM | > 100 µM | > 100 µM | > 100 µM | > 100 µM | > 100 µM | – | –
COc1ccc(C(=O)/C=C/c2ccc(OCCCOc3ccc(/C=C/C(=O)c4ccc(OC)c(OC)c4)cc3)cc2)cc1OC | > 100 µM | – | > 100 µM | – | > 100 µM | > 100 µM | > 100 µM | > 100 µM | > 100 µM | > 100 µM
Cn1cnc(/C=C/C#N)c1 | > 100 µM | > 100 µM | > 100 µM | > 100 µM | > 100 µM | > 100 µM | – | > 100 µM | – | > 100 µM
NNc1nnc(-c2ccccc2)nc1Cc1ccccc1 | > 100 µM | 26.3 µM | 6.43 µM | > 100 µM | > 100 µM | > 100 µM | – | > 100 µM | – | –
C/C=C\C(CC(=O)NCCc1c[nH]c2ccccc12)CC(=O)OC (centres undefined) | > 100 µM | > 100 µM | – | > 100 µM | – | > 100 µM | > 100 µM | > 100 µM | > 100 µM | > 100 µM
COc1ccccc1NC(=O)CSC(N)=O | > 100 µM | > 100 µM | > 100 µM | > 100 µM | > 100 µM | > 100 µM | – | > 100 µM | – | 84.3 µM
c1ccc2c(c1)ccc1nc(-c3ccc4c(c3)OCO4)c3c(c12)CCC3 | > 100 µM | > 100 µM | > 100 µM | > 100 µM | – | > 100 µM | > 100 µM | – | > 100 µM | > 100 µM
O=C(O)c1cc(Nc2c(O)c3c(c(O)c2Cl)C(=O)C=CC3=O)ccc1O | > 10 µM | > 10 µM | > 10 µM | > 10 µM | – | > 10 µM | > 10 µM | > 10 µM | > 10 µM | > 10 µM
CCOC(=O)NC(OCc1ccccc1)(C(=O)OC)C(F)(F)F (centres undefined) | > 100 µM | – | – | > 100 µM | > 100 µM | > 100 µM | > 100 µM | > 100 µM | > 100 µM | –
Cc1ccc(C(=O)NN=C(/N=N/c2cccc(C)c2)c2ccc(N(C)C)cc2)cc1 | > 100 µM | – | > 100 µM | > 100 µM | > 100 µM | > 100 µM | > 100 µM | > 100 µM | > 100 µM | –
CCn1c(O)c(C(=O)NC(C)c2ccc([N+](=O)[O-])cc2)c(=O)n(CC)c1=S (centres undefined) | 3.6 µM | – | 11.9 µM | 6.77 µM | – | 10.5 µM | 14.2 µM | 17 µM | 7.42 µM | 5.34 µM
CC(C)NCCNC(=O)c1ccccc1Nc1c(Cl)cccc1Cl | – | – | 30.1 µM | 20.4 µM | 26.8 µM | 30.4 µM | – | 24 µM | – | 16.3 µM
Cc1cccc(=O)c([O-])c1.Cc1cccc(=O)c([O-])c1.Cc1cccc(=O)c([O-])c1.Cc1cccc(=O)c([O-])c1.[Th+4] | > 38.6 µM | > 100 µM | > 100 µM | > 100 µM | > 100 µM | > 100 µM | – | > 100 µM | – | > 77.7 µM
CCOc1ccccc1N=NC1C(=O)N(C(=O)CC(=O)Nc2ccccc2OC)N=C1C (centres undefined) | – | > 100 µM | > 100 µM | > 100 µM | – | > 100 µM | > 100 µM | > 100 µM | 12.2 µM | 42.1 µM
COc1ccc(C2C3=CONC3CC3CCCCC32)cc1 (centres undefined) | > 100 µM | > 100 µM | > 100 µM | > 100 µM | > 100 µM | > 100 µM | > 100 µM | > 100 µM | – | > 100 µM
CCCCNC(=S)Nc1nc(C(=O)NNC(=S)NCc2ccccc2)cs1 | > 100 µM | > 100 µM | > 100 µM | > 100 µM | 27.5 µM | > 100 µM | 59.3 µM | > 100 µM | – | –
N#C[C@H]1C(=O)C(c2nc3ccccc3[nH]2)S[C@H]1c1ccccc1 (some centres undefined) | > 100 µM | > 100 µM | > 100 µM | > 100 µM | > 100 µM | > 100 µM | – | > 100 µM | > 100 µM | –
